Each structure is given as a SMILES string. ≈ marks a conversion by molar mass, not a printed value.

The assay concerns Escherichia coli 31. The assay is described as follows: In vitro antimicrobial activity, two-fold agar-plate dilution method (MIC). Particulars: HI-agar, 37° C., 20 hours. It counts as cell-based. The protocol: Now in order to show the utility of the object compounds (I), the test data on the in vitro antimicrobial activity of some representative compounds (I) of this invention are shown in the following. Test: In vitro Antimicrobial Activity.
In vitro Antimicrobial activity was determined by the two-fold agar-plate dilution method as described below.
One loopful of an overnight culture of each test strain in Tripticase-soy broth (approximately 10^8 viable cells per ml) was streaked on heart infusion agar (HI-agar) containing graded concentrations of antimicrobial agents, and the minimal inhibitory concentration (MIC) was expressed in term of μg/ml after incubation at 37° C. for 20 hours.
What is called MIC is the lowest concentration found to suppress growth. A high value points to a less susceptible organism. `CCO/N=C(\C(=O)NC1C(=O)N2C(C(=O)[O-])=C(C[n+]3ccccc3)CSC12)c1nccc(N)n1` (stereo not drawn) [Compound C, 7-[2-Ethoxyimino-2-(4-aminopyrimidin-2-yl)acetamido]-3-(1-pyridiniomethyl)-3-cephem-4-carboxylate (syn isomer)] had an MIC of 0.05 µg/mL (≈ 0.103 µM).

Molecule `CSCO/N=C(\C(=O)NC1C(=O)N2C(C(=O)[O-])=C(C[n+]3ccccc3)CSC12)c1nccc(N)n1` (stereo not drawn) [Compound B, 7-[2-Methylthiomethoxyimino-2-(4-aminopyrimidin-2-yl)acetamido]-3-(1-pyridiniomethyl)-3-cephem-4-carboxylate (syn isomer)] gave a minimal inhibitory concentration (MIC) of 0.05 µg/mL (≈ 0.097 µM).

For the molecule `C#CCO/N=C(\C(=O)NC1C(=O)N2C(C(=O)[O-])=C(C[n+]3ccccc3)CSC12)c1nccc(N)n1` (stereo not drawn) [Compound D, 7-[2-Propargyloxyimino-2-(4-aminopyrimidin-2-yl)acetamido]-3-(1-pyridiniomethyl)-3-cephem-4-carboxylate (syn isomer)], the MIC was found to be 0.05 µg/mL (≈ 0.101 µM).

On to `Nc1ccnc(/C(=N/OC2CCCC2)C(=O)NC2C(=O)N3C(C(=O)[O-])=C(C[n+]4ccccc4)CSC23)n1` (stereo not drawn) [Compound A, 7-[2-Cyclopentyloxyimino-2-(4-aminopyrimidin-2-yl)acetamido]-3-(1-pyridiniomethyl)-3-cephem-4-carboxylate (syn isomer)], for which the MIC stood at 0.05 µg/mL (≈ 0.0955 µM).

The record behind these values is patent publication US4407798A, “Cephem compounds” (Fujisawa Pharmaceutical Co., Ltd., priority 1980, dated 1983).
